Measurements from patent US20130273182A1, “A Herbal Extract for Treating Fatty Liver Disease and a Medication Thereof” (priority 2012, published 2013).

Assay: DPPH free radical elimination test
Format: biochemical
Details: 10 mg/ml sample, 0.1 mM DPPH, room temperature 30 minutes, OD 517 nm
Experimental: Trial (A): DPPH Free Radical Elimination Test Referring to TABLE 1, there are six groups (A0) to (A5) to test, wherein the group (A0) comprising 10 mg/ml of ascorbic acid, and other five groups comprising extract of a dry Andrographis paniculata sample, a dry Acanthopanax senticosus sample or a combination of dry Andrographis paniculata sample and dry Acanthopanax senticosus sample in various weight ratios respectively. The group (A1) is a liquid extract obtained by extracting 4 kg of dry Andrographis paniculata sample with 1 liter of 95% ethanol. The group (A2) is a liquid extract obtained by extracting 4 kg of dry Acanthopanax senticosus sample with 1 liter of 95% ethanol. The group (A3) is a liquid extract obtained by extracting 4 kg of dry Andrographis paniculata sample and dry Acanthopanax senticosus sample in a weight ratio of 1:1 with 1 liter of 95% ethanol. The group (A4) is a liquid extract obtained by extracting 4 kg of dry Andrographis paniculata and dry Acanthopanax senticosus in a weight ratio of 1:2 with 1 liter of 95% ethanol. The group (A5) is a liquid extract obtained by extracting 4 kg of dry Andrographis paniculata and dry Acanthopanax senticosus in a weight ratio of 1:3 with 1 liter of 95% ethanol. […] The 6 samples are analyzed in the DPPH free radical elimination ability. […] DPPH elimination rates of each sample are further calculated by using Formula I. [formula]

Structure (SMILES): O=C1O[C@H]([C@@H](O)CO)C(O)=C1O [ascorbic acid]
- Percentage of DPPH elimination (%): 96.4 ± 2.7%
